Reference: patent publication US5593970A, “Heterocyclic anthracycline analogs” (priority 1994, dated 1997)
Structures can show the parent of a compound that is named as a salt. Where two headings read alike, the source gives them in different places.

What was measured:
Experiment in all cases: Microculture tetrazolium assay
Assay type in all cases: cell-based
SKOV3 = system: SKOV3
LOX = system: LOX
HT29 = system: HT29
T47D = system: T47D
SKVLB = conditions: for VLB/OV3: IC50 ratio SKVLB/SKOV3; for IC50: SKVLB
[1] = Homo sapiens, SK-OV-3, SKOV3, read-out: IC50
[2] = Homo sapiens, HT-29, HT29, read-out: IC50

Compound | IC50 (LOX; read-out: IC50) [µM] | IC50 (SKVLB; read-out: IC50) [µM] | IC50 (SKOV3; [1]) [µM] | IC50 (HT29; [2]) [µM] | IC50 (T47D; Homo sapiens, read-out: IC50) [µM] | IC50 (SKOV3; SKOV3, read-out: IC50) [µM] | IC50 (HT29; HT29, read-out: IC50) [µM] | IC50 (T47D; read-out: IC50) [µM] | VLB/OV3 (SKVLB) | IC50 (HT29; Homo sapiens, HT-29, HT29) [µM] | IC50 (T47D; Homo sapiens) [µM] | IC50 (SKOV3; Homo sapiens, SK-OV-3, SKOV3) [µM] | IC50 (LOX) [µM] | IC50 (SKVLB) [µM]
1S,3R-Methyl(1-[2',3',6'-trideoxy-3'-trifluoroacetamido-4'-hydroxy-1,5-dihydro-L-lyxohexopyranose-2-yl)-6,11-dioxo-3,4,5,12-tetrahydroanthraceno[2,3- c]pyran-3-yl)ketone [BCH-2156] | 0.375 | 5.36 | – | – | – | 3.41 | 1.19 | 2.71 | 1.57 | – | – | – | – | –
CC(=O)C1Cc2c(O)c3c(c(O)c2C(O[C@H]2C[C@H](NC(=O)C(F)(F)F)[C@H](O)[C@H](C)O2)O1)C(=O)c1ccccc1C3=O (mixture of isomers) [BCH-1131, (1'S,1S,3R) and (1'S,1R,3S)-Methyl-[5,12-dihydroxy-1-(2',3',6'-trideoxy-3'-trifluoroacetamido-4'-hydroxy-L-lyxohexopyranose)-6,11-dioxo-3,4,6,11,tetrahydroanthraceno-(2,3-C)pyran-3-yl]ketone] | 4.83 | 11.2 | 4.58 | 6.93 | 9.48 | – | – | – | 2.45 | – | – | – | – | –
COCC1Cc2c(O)c3c(c(O)c2C(O[C@H]2C[C@H](N)[C@H](O)[C@H](C)O2)O1)C(=O)c1ccccc1C3=O (mixture of isomers) [BCH-1992, (1'S,1S,3R) and (1'S,1R,3S)-5,12-dihydroxy-3-methoxymethyl-1-(2',3',6'-trideoxy-3'-amino-L-lyxohexopyranose)-1,2,3,4-tetrahydro-(2-oxygen)naphthacene-6,11-dione hydrochloride] | 0.666 | 2.74 | 0.57 | – | 0.807 | – | – | – | 4.81 | 0.183 | – | – | – | –
C[C@@H]1O[C@@H](OC2OC(C#N)Cc3c(O)c4c(c(O)c32)C(=O)c2ccccc2C4=O)C[C@H](NC(=O)C(F)(F)F)[C@@H]1O (mixture of isomers) [BCH-2055, (1'S,1R,3S) and (1'S,1S,3R)(5,12-Dihydroxy-1-(2',3',6'-trideoxy-3'-trifluoroacetamido-4'-hydroxy-L-lyxohexopyranose)-6,11-dioxo-3,4,5,12-tetrahydroanthraceno-[2,3-c]pyran-3-yl)nitrile] | 1.13 | 2.56 | 0.898 | 0.471 | – | – | – | – | 2.85 | – | 3.51 | – | – | –
C[C@@H]1O[C@@H](O[C@H]2O[C@H](COc3ccccc3)Cc3c(O)c4c(c(O)c32)C(=O)c2ccccc2C4=O)C[C@H](N)[C@@H]1O (mixture of isomers) [BCH-2058, (1'S,1R,3S) and (1'S,1S,3R)-5,12-dihydroxy-3-phenyloxymethyl-1-(2',3',6'-trideoxy-3'-amino-L-lyxohexopyranose)-1,2,3,4-tetrahydro-(2-oxygen)-naphthacene-6,11-dione-hydrochloride] | 0.226 | 0.407 | 0.392 | 0.163 | 0.49 | – | – | – | 1.04 | – | – | – | – | –
C[C@@H]1O[C@@H](O[C@@H]2O[C@@H](COc3ccccc3)Cc3c(O)c4c(c(O)c32)C(=O)c2ccccc2C4=O)C[C@H](N)[C@@H]1O (mixture of isomers) [BCH-2059, (1'S,1R,3S) and (1'S,1S,3R)-5,12-dihydroxy-3-phenyloxymethyl-1-(2',3',6'-trideoxy-3'-amino-L-lyxohexopyranose)-1,2,3,4-tetrahydro-(2-oxygen)-naphthacene-6,11-dione-hydrochloride] | 0.209 | 0.306 | 0.247 | 0.156 | 0.442 | – | – | – | 1.24 | – | – | – | – | –
CC[C@@H]1CO[C@@H](O[C@H]2C[C@H](NC(=O)C(F)(F)F)[C@H](O)[C@H](C)O2)C2=C1C(=O)c1c(cc3ccccc3c1O)C2=O (mixture of isomers) [BCH-2084, (1'S, 1S,4S) and (1'S,1R,4R)-5,12-dioxo-4-ethyl-6-hydroxy-1-(2',3',6'-trideoxy-3'-trifluoroacetamido-L-lyxohexopyranose)-3,4,5,12-tetrahydroanthraceno-[2,3-c]-pyran] | 5.2 | 12 | 4.2 | 5.8 | 5.6 | – | – | – | – | – | – | – | – | –
CC[C@@H]1CC2=C(C(=O)c3cc4ccccc4c(O)c3C2=O)[C@@H](O[C@H]2C[C@H](NC(=O)C(F)(F)F)[C@H](O)[C@H](C)O2)O1 [BCH-1606, (1'S,1R,3R)-5,12-dioxo-3-ethyl-6-hydroxy-1-(2',3',6'-trideoxy-3'-trifluoroacetamido-4'-hydroxy-L-lyxohexopyranose)-3,4,5,12-tetrahydroanthraceno[2,3-c]pyran] | 0.891 | 3.26 | 1.13 | – | 1.33 | – | – | – | 2.88 | – | – | – | – | –
CC[C@H]1CC2=C(C(=O)c3cc4ccccc4c(O)c3C2=O)[C@H](O[C@H]2C[C@H](N)[C@H](O)[C@H](C)O2)O1 [BCH-1610, (1'S,1S,3S)-5,12-dioxo-3-ethyl-6-hydroxy-1-(2',3',6'-trideoxy-3'-amino-4'-hydroxy-L-lyxohexopyranose)-3,4,5,12-tetrahydroanthraceno[2,3-c]pyran hydrochloride] | – | – | – | – | – | – | – | – | 3.30 | – | 1.36 | 0.839 | 0.845 | 2.77

More lines, in order of falling IC50 (LOX; read-out: IC50), values ahead:

IC50 (LOX; read-out: IC50) [µM] | IC50 (SKVLB; read-out: IC50) [µM] | IC50 (SKOV3; [1]) [µM] | IC50 (HT29; [2]) [µM] | IC50 (T47D; Homo sapiens, read-out: IC50) [µM] | Compound | IC50 (SKOV3; SKOV3, read-out: IC50) [µM] | IC50 (HT29; HT29, read-out: IC50) [µM] | IC50 (T47D; read-out: IC50) [µM] | VLB/OV3 (SKVLB) | IC50 (HT29; Homo sapiens, HT-29, HT29) [µM] | IC50 (T47D; Homo sapiens) [µM] | IC50 (SKOV3; Homo sapiens, SK-OV-3, SKOV3) [µM] | IC50 (LOX) [µM] | IC50 (SKVLB) [µM]
38.1 | 89.9 | 86.6 | 79.6 | 59.7 | C[C@@H]1O[C@@H](O[C@H]2O[C@H](C(C)(F)F)CC3=C2C(=O)c2cc4ccccc4c(O)c2C3=O)C[C@H](O)[C@@H]1O (mixture of isomers) [BCH-1662, (1'S,1S,3S) and (1'S,1R, 3R)-5,12-dioxo-3-(1,1-difluoroethyl)-6-hydroxy-1-(2',6'-dideoxy-L-lyxohexopyranose)-3,4,5,12-tetrahydroanthraceno-[2,3-c]-pyran] | – | – | – | 1.04 | – | – | – | – | –
31.2 | 32.4 | 27.9 | 31.3 | 47.9 | C[C@@H]1O[C@@H](O[C@@H]2O[C@@H](C(C)(F)F)CC3=C2C(=O)c2cc4ccccc4c(O)c2C3=O)C[C@H](O)[C@@H]1O (mixture of isomers) [BCH-1663, (1'S,1S,3S) and (1'S,1R, 3R)-5,12-dioxo-3-(1,1-difluoroethyl)-6-hydroxy-1-(2',6'-dideoxy-L-lyxohexopyranose)-3,4,5,12-tetrahydroanthraceno-[2,3-c]-pyran] | – | – | – | 1.16 | – | – | – | – | –
2.41 | 4.25 | 0.573 | 2.59 | 3.11 | COC(=O)[C@@H](N)COC1OC(C(C)=O)CC2=C1C(=O)c1cc3ccccc3c(O)c1C2=O (mixture of isomers) [BCH-1657, (1S,2'S,3R) and (1R, 2'S,3S)-Methyl-{6-hydroxyl-1[O-serinemethyl ester]-5,12-dioxo-3,4,5,12-tetrahydroanthraceno-[2,3-c]pyran-3-yl}ketone hydrochloride salt] | – | – | – | 7.42 | – | – | – | – | –
2.14 | 14.7 | 4.27 | > 100 | 6.79 | CC(=O)C1CC2=C(C(=O)c3cc4ccccc4c(O)c3C2=O)C(O[C@H]2C[C@H](NC(=O)C(F)(F)F)[C@H](OC(=O)c3ccc([N+](=O)[O-])cc3)[C@H](C)O2)O1 (mixture of isomers) [BCH-1122, (1S',1R,3S) and (1'S,1S,3R)-methyl (6-hydroxy-1-(2',3',6'-trideoxy-3'-trifluoroacetamido-4'-O-p-nitrobenzoyl-L-lyxohexopyranose)-6-hydroxy-5,12-dioxo-3,4,5,12-tetra-hydroanthraceno[2,3-C]pyran-3-yl) ketone] | – | – | – | 3.44 | – | – | – | – | –
1.77 | 10.3 | 4.36 | 6.38 | 5.72 | C[C@@H]1O[C@@H](O[C@H]2O[C@H](COc3ccccc3)CC3=C2C(=O)c2cc4ccccc4c(O)c2C3=O)C[C@H](NC(=O)C(F)(F)F)[C@@H]1O (mixture of isomers) [BCH-2048, (1'S,1R,3S) and (1'S,1S,3R)-5,12-dioxo-6-hydroxy-3-phenyloxymethyl-1-(2',3',6'-trideoxy-3'-trifluoroacetamido-L-lyxohexopyranose)-3,4,5,12-tetrahydroanthraceno-[2,3-c]-pyran] | – | – | – | 2.36 | – | – | – | – | –
0.741 | 3.35 | 0.672 | – | 1.41 | CC(=O)[C@H]1Cc2c(O)c3c(c(O)c2[C@H](O[C@H]2C[C@H](N)[C@H](O)[C@H](C)O2)O1)C(=O)c1ccccc1C3=O [BCH-1195, (1'S,1S,3R)-Methyl-[5,12-dihydroxy-1-(2',3',6'-trideoxy-3'-amino-4'-hydroxy-L-lyxohexopyranose)-6,11,dioxo-3,4,6,11-tetrahydroanthraceno-(2,3-C)pyran-3-yl]ketone hydrochloride] | – | – | – | 4.99 | – | – | – | – | –
0.17 | 0.598 | 0.171 | 0.0832 | 0.271 | C[C@@H]1O[C@@H](OC2OC(C#N)Cc3c(O)c4c(c(O)c32)C(=O)c2ccccc2C4=O)C[C@H](N)[C@@H]1O (mixture of isomers) [BCH-2056, (1'S,1R,3S) and (1'S,1S,3R)(5,12-Dihydroxy-1-(2',3',6'-trideoxy-3'-amino-4'-hydroxy-L-lyxohexopyranose)-6,11-dioxo-3,4,5,12-tetrahydroanthraceno-[2,3-c]pyran-3-yl)nitrile] | – | – | – | 3.50 | – | – | – | – | –
0.0623 | 1.46 | 0.0056 | – | 0.0439 | CC(=O)[C@@H]1Cc2c(O)c3c(c(O)c2[C@@H](O[C@H]2C[C@H](N)[C@H](O)[C@H](C)O2)O1)C(=O)c1ccccc1C3=O [BCH-1194, (1'S,1R,3S)-Methyl-[5,12-dihydroxy-1-(2',3',6'-trideoxy-3'-amino-4'-hydroxy-L-lyxohexopyranose)-6,11-dioxo-3,4,6,11-tetrahydroanthraceno-(2,3-C)pyran-3-yl]ketone hydrochloride] | – | – | – | 260.71 | – | – | – | – | –
